Measurements published in the OligoGym collection.
Oligonucleotides are given in HELM: sugar(base)linkage, 5' to 3'; d 2'-deoxyribose, r ribose, m 2'-O-methylribose, p phosphate. ss, as = sense and antisense strand

molecular target: UBE2N; experiment: reporter assay of Huesken 2005; settings: siRNA
Further: test concentration or dose not given here.

Point of comparison: “RNA1{r(U)p.r(G)p.r(A)p.r(A)p.r(A)p.r(G)p.r(A)p.r(U)p.r(A)p.r(A)p.r(G)p.r(U)p.r(G)p.r(G)p.r(U)p.r(C)p.r(C)p.r(C)p.r(C)p.d(T)p.d(T)}|RNA2{r(G)p.r(G)p.r(G)p.r(G)p.r(A)p.r(C)p.r(C)p.r(A)p.r(C)p.r(U)p.r(U)p.r(A)p.r(U)p.r(C)p.r(U)p.r(U)p.r(U)p.r(C)p.r(A)p.d(A)p.d(A)}$$$RNA1{StrandType:ss}|RNA2{StrandType:as}$”, normalised inhibition (eCFP-eYFP dual reporter) 34.5%. Against it:
- RNA1{r(U)p.r(A)p.r(U)p.r(U)p.r(C)p.r(C)p.r(U)p.r(U)p.r(C)p.r(C)p.r(A)p.r(G)p.r(A)p.r(A)p.r(G)p.r(A)p.r(A)p.r(U)p.r(A)p.d(T)p.d(T)}|RNA2{r(U)p.r(A)p.r(U)p.r(U)p.r(C)p.r(U)p.r(U)p.r(C)p.r(U)p.r(G)p.r(G)p.r(A)p.r(A)p.r(G)p.r(G)p.r(A)p.r(A)p.r(U)p.r(A)p.d(G)p.d(T)}$$$RNA1{StrandType:ss}|RNA2{StrandType:as}$ — higher, 83%
- RNA1{r(C)p.r(U)p.r(U)p.r(G)p.r(A)p.r(A)p.r(C)p.r(U)p.r(A)p.r(U)p.r(U)p.r(C)p.r(C)p.r(U)p.r(U)p.r(C)p.r(C)p.r(A)p.r(G)p.d(T)p.d(T)}|RNA2{r(C)p.r(U)p.r(G)p.r(G)p.r(A)p.r(A)p.r(G)p.r(G)p.r(A)p.r(A)p.r(U)p.r(A)p.r(G)p.r(U)p.r(U)p.r(C)p.r(A)p.r(A)p.r(G)p.d(T)p.d(T)}$$$RNA1{StrandType:ss}|RNA2{StrandType:as}$ — higher, 84.8%
- RNA1{r(C)p.r(C)p.r(C)p.r(A)p.r(A)p.r(G)p.r(C)p.r(C)p.r(A)p.r(U)p.r(A)p.r(G)p.r(A)p.r(A)p.r(A)p.r(C)p.r(A)p.r(G)p.r(C)p.d(T)p.d(T)}|RNA2{r(G)p.r(C)p.r(U)p.r(G)p.r(U)p.r(U)p.r(U)p.r(C)p.r(U)p.r(A)p.r(U)p.r(G)p.r(G)p.r(C)p.r(U)p.r(U)p.r(G)p.r(G)p.r(G)p.d(C)p.d(T)}$$$RNA1{StrandType:ss}|RNA2{StrandType:as}$ — higher, 60.2%
- RNA1{r(U)p.r(A)p.r(G)p.r(A)p.r(U)p.r(A)p.r(U)p.r(U)p.r(U)p.r(U)p.r(G)p.r(A)p.r(A)p.r(A)p.r(G)p.r(A)p.r(U)p.r(A)p.r(A)p.d(T)p.d(T)}|RNA2{r(U)p.r(U)p.r(A)p.r(U)p.r(C)p.r(U)p.r(U)p.r(U)p.r(C)p.r(A)p.r(A)p.r(A)p.r(A)p.r(U)p.r(A)p.r(U)p.r(C)p.r(U)p.r(A)p.d(G)p.d(A)}$$$RNA1{StrandType:ss}|RNA2{StrandType:as}$ — higher, 80.6%
- RNA1{r(U)p.r(C)p.r(C)p.r(U)p.r(U)p.r(C)p.r(C)p.r(A)p.r(G)p.r(A)p.r(A)p.r(G)p.r(A)p.r(A)p.r(U)p.r(A)p.r(C)p.r(C)p.r(C)p.d(T)p.d(T)}|RNA2{r(G)p.r(G)p.r(G)p.r(U)p.r(A)p.r(U)p.r(U)p.r(C)p.r(U)p.r(U)p.r(C)p.r(U)p.r(G)p.r(G)p.r(A)p.r(A)p.r(G)p.r(G)p.r(A)p.d(A)p.d(T)}$$$RNA1{StrandType:ss}|RNA2{StrandType:as}$ — higher, 36.9%
- RNA1{r(A)p.r(C)p.r(C)p.r(A)p.r(G)p.r(U)p.r(U)p.r(C)p.r(C)p.r(U)p.r(G)p.r(G)p.r(C)p.r(A)p.r(U)p.r(C)p.r(A)p.r(A)p.r(A)p.d(T)p.d(T)}|RNA2{r(U)p.r(U)p.r(U)p.r(G)p.r(A)p.r(U)p.r(G)p.r(C)p.r(C)p.r(A)p.r(G)p.r(G)p.r(A)p.r(A)p.r(C)p.r(U)p.r(G)p.r(G)p.r(U)p.d(T)p.d(C)}$$$RNA1{StrandType:ss}|RNA2{StrandType:as}$ — higher, 97.4%
- RNA1{r(U)p.r(C)p.r(A)p.r(U)p.r(G)p.r(U)p.r(G)p.r(G)p.r(U)p.r(C)p.r(A)p.r(U)p.r(U)p.r(G)p.r(C)p.r(U)p.r(G)p.r(G)p.r(C)p.d(T)p.d(T)}|RNA2{r(G)p.r(C)p.r(C)p.r(A)p.r(G)p.r(C)p.r(A)p.r(A)p.r(U)p.r(G)p.r(A)p.r(C)p.r(C)p.r(A)p.r(C)p.r(A)p.r(U)p.r(G)p.r(A)p.d(A)p.d(A)}$$$RNA1{StrandType:ss}|RNA2{StrandType:as}$ — higher, 50.6%
- RNA1{r(A)p.r(G)p.r(A)p.r(A)p.r(U)p.r(A)p.r(C)p.r(C)p.r(C)p.r(A)p.r(A)p.r(U)p.r(G)p.r(G)p.r(C)p.r(A)p.r(G)p.r(C)p.r(C)p.d(T)p.d(T)}|RNA2{r(G)p.r(G)p.r(C)p.r(U)p.r(G)p.r(C)p.r(C)p.r(A)p.r(U)p.r(U)p.r(G)p.r(G)p.r(G)p.r(U)p.r(A)p.r(U)p.r(U)p.r(C)p.r(U)p.d(T)p.d(C)}$$$RNA1{StrandType:ss}|RNA2{StrandType:as}$ — higher, 44.7%
- RNA1{r(C)p.r(A)p.r(U)p.r(U)p.r(A)p.r(G)p.r(C)p.r(A)p.r(A)p.r(A)p.r(U)p.r(G)p.r(A)p.r(U)p.r(G)p.r(U)p.r(A)p.r(G)p.r(C)p.d(T)p.d(T)}|RNA2{r(G)p.r(C)p.r(U)p.r(A)p.r(C)p.r(A)p.r(U)p.r(C)p.r(A)p.r(U)p.r(U)p.r(U)p.r(G)p.r(C)p.r(U)p.r(A)p.r(A)p.r(U)p.r(G)p.d(G)p.d(A)}$$$RNA1{StrandType:ss}|RNA2{StrandType:as}$ — lower, 30.2%
- RNA1{r(A)p.r(A)p.r(G)p.r(U)p.r(G)p.r(G)p.r(U)p.r(C)p.r(C)p.r(C)p.r(C)p.r(A)p.r(G)p.r(C)p.r(A)p.r(C)p.r(U)p.r(G)p.r(C)p.d(T)p.d(T)}|RNA2{r(G)p.r(C)p.r(A)p.r(G)p.r(U)p.r(G)p.r(C)p.r(U)p.r(G)p.r(G)p.r(G)p.r(G)p.r(A)p.r(C)p.r(C)p.r(A)p.r(C)p.r(U)p.r(U)p.d(A)p.d(T)}$$$RNA1{StrandType:ss}|RNA2{StrandType:as}$ — higher, 48.2%
- RNA1{r(U)p.r(C)p.r(C)p.r(G)p.r(C)p.r(A)p.r(C)p.r(A)p.r(G)p.r(U)p.r(U)p.r(C)p.r(U)p.r(G)p.r(C)p.r(U)p.r(A)p.r(U)p.r(C)p.d(T)p.d(T)}|RNA2{r(G)p.r(A)p.r(U)p.r(A)p.r(G)p.r(C)p.r(A)p.r(G)p.r(A)p.r(A)p.r(C)p.r(U)p.r(G)p.r(U)p.r(G)p.r(C)p.r(G)p.r(G)p.r(A)p.d(T)p.d(C)}$$$RNA1{StrandType:ss}|RNA2{StrandType:as}$ — higher, 63.5%
- RNA1{r(C)p.r(A)p.r(A)p.r(A)p.r(U)p.r(G)p.r(A)p.r(U)p.r(G)p.r(U)p.r(A)p.r(G)p.r(C)p.r(G)p.r(G)p.r(A)p.r(G)p.r(C)p.r(A)p.d(T)p.d(T)}|RNA2{r(U)p.r(G)p.r(C)p.r(U)p.r(C)p.r(C)p.r(G)p.r(C)p.r(U)p.r(A)p.r(C)p.r(A)p.r(U)p.r(C)p.r(A)p.r(U)p.r(U)p.r(U)p.r(G)p.d(C)p.d(T)}$$$RNA1{StrandType:ss}|RNA2{StrandType:as}$ — higher, 64.2%
- RNA1{r(U)p.r(U)p.r(U)p.r(A)p.r(A)p.r(A)p.r(C)p.r(U)p.r(U)p.r(G)p.r(A)p.r(A)p.r(C)p.r(U)p.r(A)p.r(U)p.r(U)p.r(C)p.r(C)p.d(T)p.d(T)}|RNA2{r(G)p.r(G)p.r(A)p.r(A)p.r(U)p.r(A)p.r(G)p.r(U)p.r(U)p.r(C)p.r(A)p.r(A)p.r(G)p.r(U)p.r(U)p.r(U)p.r(A)p.r(A)p.r(A)p.d(A)p.d(G)}$$$RNA1{StrandType:ss}|RNA2{StrandType:as}$ — lower, 29.9%
- RNA1{r(A)p.r(U)p.r(U)p.r(U)p.r(U)p.r(C)p.r(A)p.r(U)p.r(G)p.r(U)p.r(G)p.r(G)p.r(U)p.r(C)p.r(A)p.r(U)p.r(U)p.r(G)p.r(C)p.d(T)p.d(T)}|RNA2{r(G)p.r(C)p.r(A)p.r(A)p.r(U)p.r(G)p.r(A)p.r(C)p.r(C)p.r(A)p.r(C)p.r(A)p.r(U)p.r(G)p.r(A)p.r(A)p.r(A)p.r(A)p.r(U)p.d(A)p.d(A)}$$$RNA1{StrandType:ss}|RNA2{StrandType:as}$ — higher, 47.1%
- RNA1{r(G)p.r(A)p.r(A)p.r(C)p.r(U)p.r(A)p.r(U)p.r(U)p.r(C)p.r(C)p.r(U)p.r(U)p.r(C)p.r(C)p.r(A)p.r(G)p.r(A)p.r(A)p.r(G)p.d(T)p.d(T)}|RNA2{r(C)p.r(U)p.r(U)p.r(C)p.r(U)p.r(G)p.r(G)p.r(A)p.r(A)p.r(G)p.r(G)p.r(A)p.r(A)p.r(U)p.r(A)p.r(G)p.r(U)p.r(U)p.r(C)p.d(A)p.d(A)}$$$RNA1{StrandType:ss}|RNA2{StrandType:as}$ — higher, 87.5%
- RNA1{r(U)p.r(U)p.r(G)p.r(G)p.r(G)p.r(A)p.r(A)p.r(G)p.r(A)p.r(A)p.r(U)p.r(A)p.r(U)p.r(G)p.r(U)p.r(C)p.r(U)p.r(A)p.r(G)p.d(T)p.d(T)}|RNA2{r(C)p.r(U)p.r(A)p.r(G)p.r(A)p.r(C)p.r(A)p.r(U)p.r(A)p.r(U)p.r(U)p.r(C)p.r(U)p.r(U)p.r(C)p.r(C)p.r(C)p.r(A)p.r(A)p.d(C)p.d(T)}$$$RNA1{StrandType:ss}|RNA2{StrandType:as}$ — higher, 52.8%
- RNA1{r(U)p.r(C)p.r(C)p.r(C)p.r(A)p.r(A)p.r(U)p.r(C)p.r(C)p.r(A)p.r(G)p.r(A)p.r(U)p.r(G)p.r(A)p.r(U)p.r(C)p.r(C)p.r(A)p.d(T)p.d(T)}|RNA2{r(U)p.r(G)p.r(G)p.r(A)p.r(U)p.r(C)p.r(A)p.r(U)p.r(C)p.r(U)p.r(G)p.r(G)p.r(A)p.r(U)p.r(U)p.r(G)p.r(G)p.r(G)p.r(A)p.d(G)p.d(C)}$$$RNA1{StrandType:ss}|RNA2{StrandType:as}$ — higher, 78.4%
- RNA1{r(G)p.r(G)p.r(A)p.r(C)p.r(U)p.r(U)p.r(U)p.r(U)p.r(A)p.r(A)p.r(A)p.r(C)p.r(U)p.r(U)p.r(G)p.r(A)p.r(A)p.r(C)p.r(U)p.d(T)p.d(T)}|RNA2{r(A)p.r(G)p.r(U)p.r(U)p.r(C)p.r(A)p.r(A)p.r(G)p.r(U)p.r(U)p.r(U)p.r(A)p.r(A)p.r(A)p.r(A)p.r(G)p.r(U)p.r(C)p.r(C)p.d(C)p.d(T)}$$$RNA1{StrandType:ss}|RNA2{StrandType:as}$ — higher, 87.2%
- RNA1{r(G)p.r(U)p.r(A)p.r(G)p.r(A)p.r(C)p.r(A)p.r(A)p.r(G)p.r(U)p.r(U)p.r(G)p.r(G)p.r(G)p.r(A)p.r(A)p.r(G)p.r(A)p.r(A)p.d(T)p.d(T)}|RNA2{r(U)p.r(U)p.r(C)p.r(U)p.r(U)p.r(C)p.r(C)p.r(C)p.r(A)p.r(A)p.r(C)p.r(U)p.r(U)p.r(G)p.r(U)p.r(C)p.r(U)p.r(A)p.r(C)p.d(A)p.d(T)}$$$RNA1{StrandType:ss}|RNA2{StrandType:as}$ — higher, 94%
